Laboratory results taken from ChEMBL document CHEMBL1156829 (Proc Natl Acad Sci U S A, 2008).

What was measured:
[1] = system: Plasmodium falciparum; assay: NOVARTIS: Inhibition of Plasmodium falciparum W2 (drug-resistant) proliferation in erythrocyte-based infection assay; format: functional, organism-based; conditions: Plasmodium falciparum, W2; read-out: EC50
[2] = system: Plasmodium falciparum; assay: NOVARTIS: Inhibition of Plasmodium falciparum 3D7 (drug-susceptible) proliferation in erythrocyte-based infection assay; format: functional, organism-based; conditions: Plasmodium falciparum, 3D7
[3] = NOVARTIS: Cytotoxicity against human hepatocellular carcinoma cell line (Huh7); format: toxicity, cell-based, Huh-7; conditions: Huh7 cells (hepatocellular carcinoma cell line)

Structure (SMILES) | EC50 [1] | EC50 [2] | CC50 [3]
CC(C)CCNCC(O)Cn1c2ccc(Br)cc2c2cc(Br)ccc21 (stereo not given) | 88.5 nM | 270 nM | 19 µM
N=c1n(Cc2ccccc2)c2ccccc2n1CC(O)c1ccc(Br)cc1 (stereo not given) | 101 nM | 254 nM | 21.8 µM
CCN1CC=C2C(C#N)=C(N)C(C#N)(C#N)[C@H](c3ccc(C)s3)[C@H]2C1 | 464 nM | 1680 nM | > 100 µM
CCOC(=O)C1CCN(C(=O)c2c(C)oc3c2C(=O)c2ccccc2C3=O)CC1 | 103 nM | 201 nM | 22.2 µM
COc1cc2ncnc(NC3CCN(Cc4ccccc4)CC3)c2cc1OC | 485 nM | 400 nM | > 100 µM
O=C(Nc1c2ccccc2nc2ccccc12)c1cc(Cl)ccc1O | 484 nM | 1130 nM | > 100 µM
S=P(OCC1C(COP(=S)(c2ccccc2)c2ccccc2)C1(Cl)Cl)(c1ccccc1)c1ccccc1 (stereo not given) | 484 nM | 385 nM | > 100 µM
C=CC1CN2CCC1CC2C(OC(=O)C1CC1)c1ccnc2ccccc12 (stereo not given) | 199 nM | 84.7 nM | 42.2 µM
O=C1C(Nc2ccc(Cl)cc2)=C(N2CCCCC2)C(=O)c2ccccc21 | 250 nM | 319 nM | 53.2 µM
OC(CNCC1CCCO1)Cn1c2ccc(Br)cc2c2cc(Br)ccc21 (stereo not given) | 99 nM | 261 nM | 20.3 µM
COc1ccc(C(Cc2ccccc2)NC2CN3CCC2CC3)cc1 (stereo not given) | 308 nM | 4260 nM | > 65 µM
CCOc1ccc(NC(=O)CSc2nncc(O)n2)cc1 | 473 nM | 859 nM | > 100 µM
Cc1ccc(C(=O)NC2CCN(S(=O)(=O)c3c(C)cc(C)cc3C)CC2)cc1 | 472 nM | 1440 nM | > 100 µM
CC(=O)N(C1=C(N2CCCC2)C(=O)c2ccccc2C1=O)c1ccc(I)cc1 | 224 nM | 553 nM | 47 µM
Cc1ccn2c(NC(C)(C)CC(C)(C)C)c(-c3ccccc3OC(=O)c3ccc(C)c([N+](=O)[O-])c3)nc2c1 | 47.7 nM | 744 nM | > 10 µM
O=C(ON=C(c1ccncc1)c1ccc(Cl)cc1)c1ccccc1 | > 48 nM | 1240 nM | > 10 µM
CC(=O)N(C1=C(N2CCN(C)CC2)C(=O)c2ccccc2C1=O)c1cc(C)cc(C)c1 | 61.2 nM | 67 nM | 12.7 µM
COc1ccc(OC)c(C2CC(=O)N3CN(Cc4ccccc4)CSC3=C2C#N)c1 (stereo not given) | 482 nM | 638 nM | > 100 µM

Structure (SMILES) | EC50 [1] | EC50 [2] | CC50 [3]
Clc1ccc2c(c1)c1cc(Cl)ccc1n2CC1CO1 (stereo not given) | 277 nM | 341 nM | 57.4 µM
COc1ccc(OC)c(-c2ccc(C(=O)N3CCN(CC=Cc4ccccc4)CC3)c(N(C)C)n2)c1 | 145 nM | 94.6 nM | 32.8 µM
CC(=O)Nc1ccc(NS(=O)(=O)c2cc([N+](=O)[O-])ccc2Cl)cc1 | 475 nM | > 12500 nM | > 100 µM
C=CC1CN2CCC1CC2C(OC(=O)c1ccco1)c1ccnc2ccccc12 (stereo not given) | 181 nM | 35.7 nM | 41.8 µM
O=C1C2C(C(=O)N1c1ccc(F)cc1)C1(c3ccccc3)C(=O)C2(c2ccccc2)C(c2ccccc2)=C1c1ccccc1 (stereo not given) | 474 nM | 563 nM | > 100 µM
COc1cc2nc(NC(=N)N)nc(C)c2cc1OC | 44.1 nM | 24.4 nM | > 10 µM
COc1ccc(C2CC(=O)C3=C(C2)NC(C)=C(C(=O)OC2CCCC2)C3c2cccc(Cl)c2)cc1OC (stereo not given) | 75.8 nM | 201 nM | 16.9 µM
CCCNC(=O)N1CCC2(CC1)CC(=O)c1cc(C)ccc1O2 | 448 nM | 870 nM | > 100 µM
CCOC(=O)C1=C(CC)NC2=C(C(=O)CCC2)C1c1ccc(OC)c(Br)c1 (stereo not given) | 387 nM | 1070 nM | > 83.8 µM
CCCCCCCC(O)(c1ccc(OCC)cc1)C(CN1CCCCC1)c1ccccc1 (stereo not given) | 456 nM | 1180 nM | > 100 µM
OC(Cn1cnc(-c2ccccc2)c1-c1ccccc1)Cn1c2ccc(Cl)cc2c2cc(Cl)ccc21 (stereo not given) | 99.7 nM | 589 nM | 21.2 µM
COC(=O)C1=C(C)NC2=C(C(=O)CC(c3ccccc3Cl)C2)C1c1ccc(OC)c(OC)c1 (stereo not given) | 478 nM | 1290 nM | > 100 µM
O=C(Nc1ccc(OC(F)(F)F)cc1)c1cnn2c1NC(c1cccs1)CC2C(F)(F)F (stereo not given) | 241 nM | 492 nM | > 50 µM
CCc1cc2c(NCCN3CCCCC3)ncnc2s1 | 466 nM | 1320 nM | > 96.1 µM
Nc1nonc1-n1nnc(C(=O)NN=Cc2cccc(Cl)c2)c1-c1ccccc1 | 441 nM | 427 nM | > 100 µM
Cc1ccc(O)c(NC(=O)c2cnn3c(C(F)(F)F)cc(-c4ccccc4)nc23)c1 | 472 nM | 1820 nM | > 100 µM
C#CC[N+]1(CC#Cc2cccc3ccccc23)CCCCC1 | 484 nM | 973 nM | > 100 µM
